Measurements taken from ChEMBL document CHEMBL4321809, “Structure-Reactivity Relationships on Substrates and Inhibitors of the Lysine Deacylase Sirtuin 2 from Schistosoma mansoni (SmSirt2)” (J Med Chem, 2019).
Calls of active or inactive are those of the source. The calls are words filed in the database; no cut-off is given here.

Legend:
[1] = target: T1, NAD-dependent protein deacetylase (Schistosoma mansoni) (UniProt T1VXA1); test: Inhibition of recombinant Schistosoma mansoni sirtuin 2 (21 to 322 residues) expressed in Escherichia coli BL21(DE3) cells assessed as inhibition of substrate demyristoylation at 20 uM using (Z)-(Myr)-Lys-AMC as susbtrate after 1 hr in presence of NAD+ by homogeneous fluorescence based analysis relative to control
T1 sequence (whole entry): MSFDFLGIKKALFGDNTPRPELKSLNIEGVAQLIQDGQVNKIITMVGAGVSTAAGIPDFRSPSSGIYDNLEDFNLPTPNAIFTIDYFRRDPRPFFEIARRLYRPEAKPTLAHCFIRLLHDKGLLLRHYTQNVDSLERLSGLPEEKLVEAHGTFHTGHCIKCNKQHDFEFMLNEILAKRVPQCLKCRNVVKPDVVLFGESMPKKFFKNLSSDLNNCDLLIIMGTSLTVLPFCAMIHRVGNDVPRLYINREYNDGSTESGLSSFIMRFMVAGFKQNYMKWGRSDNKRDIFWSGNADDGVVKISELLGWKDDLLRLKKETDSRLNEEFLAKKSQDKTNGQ

[2] = target: T2, NAD-dependent protein deacetylase sirtuin-2 (Homo sapiens, UniProt Q8IXJ6); test: Inhibition of N-terminal His6 tagged human sirtuin 2 (25 to 389 residues) at 50 uM using Cbz-Lys(acetyl)-AMC as substrate after 4 hrs in presence of NAD+ by homogeneous fluorescence based analysis relative to control
T2 sequence (Q8IXJ6 whole entry): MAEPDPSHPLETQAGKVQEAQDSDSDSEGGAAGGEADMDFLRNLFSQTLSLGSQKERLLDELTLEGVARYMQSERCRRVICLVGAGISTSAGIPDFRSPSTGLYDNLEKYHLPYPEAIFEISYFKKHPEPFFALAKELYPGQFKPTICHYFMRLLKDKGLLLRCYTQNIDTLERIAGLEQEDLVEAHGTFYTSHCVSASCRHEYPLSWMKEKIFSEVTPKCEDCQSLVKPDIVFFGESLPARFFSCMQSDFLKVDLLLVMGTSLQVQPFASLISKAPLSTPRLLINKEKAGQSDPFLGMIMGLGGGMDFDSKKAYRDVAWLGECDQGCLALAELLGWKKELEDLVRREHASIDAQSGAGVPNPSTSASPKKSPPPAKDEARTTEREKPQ

Schistosoma mansoni [3] = test: Antiparasitic activity against adult Schistosoma mansoni Puerto Rico assessed as reduction in egg laying at 10 to 20 uM after 24 hrs by microscopic analysis; assay type: functional, organism-based
[4] = target: T2, NAD-dependent protein deacetylase sirtuin-2; test: Inhibition of N-terminal His6 tagged human sirtuin 2 (25 to 389 residues) assessed as inhibition of substrate demyristoylation at 20 uM using (Z)-(Myr)-Lys-AMC as susbtrate after 4 hrs in presence of NAD+ by homogeneous fluorescence based analysis relative to control
HL-60 = test: Cytotoxicity against human HL60 cells at 10 uM after 72 hrs by Cell titer MTS dye based analysis; settings: hl-60, 72 h
[5] = target: T3, NAD-dependent protein deacetylase (Schistosoma mansoni, UniProt T1VXA1); test: Inhibition of recombinant Schistosoma mansoni sirtuin 2 (21 to 322 residues) expressed in Escherichia coli BL21(DE3) cells assessed as inhibition of substrate demyristoylation using (Z)-(Myr)-Lys-AMC as susbtrate after 1 hr in presence of NAD+ by homogeneous fluorescence based analysis
T3 sequence (T1VXA1 whole entry): T1 sequence (whole entry)

Schistosoma mansoni [6] = test: Antiparasitic activity against Schistosoma mansoni Puerto Rico assessed as reduction in parasite viability at 10 to 20 uM after 72 hrs by microscopic analysis; assay type: functional, organism-based
[7] = target: T3, NAD-dependent protein deacetylase; test: Inhibition of recombinant Schistosoma mansoni sirtuin 2 (21 to 322 residues) expressed in Escherichia coli BL21(DE3) cells using ZMAL as substrate after 1 hr in presence of NAD+ by homogeneous fluorescence based analysis
Schistosoma mansoni [8] = test: Antiparasitic activity against adult Schistosoma mansoni Puerto Rico assessed as reduction in worm pairing at 10 to 20 uM after 24 hrs by microscopic analysis; assay type: functional, organism-based
[9] = target: T2, NAD-dependent protein deacetylase sirtuin-2; test: Inhibition of N-terminal His6 tagged human sirtuin 2 (25 to 389 residues) at 25 uM using Cbz-Lys(acetyl)-AMC as substrate after 4 hrs in presence of NAD+ by homogeneous fluorescence based analysis relative to control
[10] = target: T1, NAD-dependent protein deacetylase (Schistosoma mansoni); test: Inhibition of recombinant Schistosoma mansoni sirtuin 2 (21 to 322 residues) expressed in Escherichia coli BL21(DE3) cells assessed as inhibition of substrate deacetylation at 20 uM using ZMAL as substrate relative to control
[11] = target: T2, NAD-dependent protein deacetylase sirtuin-2; test: Inhibition of human sirutin 2 assessed as inhibition of susbtrate demyristoylation at 20 uM using (Z)-(Myr)-Lys-AMC as substrate relative to control
[12] = target: T2, NAD-dependent protein deacetylase sirtuin-2; test: Inhibition of human sirtuin 2 assessed as inhibition of substrate deacetylation using ZMAL as substrate
[13] = target: T1, NAD-dependent protein deacetylase (Schistosoma mansoni); test: Inhibition of recombinant Schistosoma mansoni sirtuin 2 (21 to 322 residues) expressed in Escherichia coli BL21(DE3) cells assessed as inhibition of substrate demyristoylation at 20 uM using (Z)-(Myr)-Lys-AMC as substrate relative to control

Imax [1] [%]	inhibition at 50 µM [2] [%]	inhibition at 20 µM [4] [%]	IC50 [5] [µM]	IC50 [7] [µM]	inhibition at 25 µM [9] [%]	inhibition [10] [%]	inhibition at 20 µM [11] [%]	IC50 [12] [µM]	inhibition [13] [%]	SMILES	inhibition (Schistosoma mansoni [3])	Activity (HL-60)	inhibition (Schistosoma mansoni [6])	inhibition (Schistosoma mansoni [8])
45	24.1	< 15	16.8	23.7	21.9					COc1ccc(Oc2ccc(C(C)N(C)c3ncc4c(N)nc(N)nc4n3)cc2)cc1 (centres undefined)	Active	Non-Toxic	Active	Active
						< 15	42.8	2.5	< 15	O=C(NCc1cccnc1)c1ccc2c(c1)C1C3CCC(C3)C1C(c1ccccc1)N2 (centres undefined)				
